Results taken from PubChem BioAssay AID248 (DTP/NCI, 2004).
Inconclusive results and toxic doses are left out. Cut-off read from the data, not from the text of the source: active = T/C of 150% or more; inactive = T/C below 125%.

Test system: L1210 leukemia ip in BDF1 mice, survival T/C
Test: NCI In Vivo Anticancer Drug Screen. Data for tumor model L1210 Leukemia (intraperitoneal) in B6D2F1 (BDF1) mice
Details: endpoint: mean survival time, higher = longer survival
Procedure, shortened: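 In this screen, tumor-bearing mice given compound are compared to those given vehicle, and their survival values are reported as a treated-to-control quotient.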

[1] = dose: 100.0 mg/kg/injection, schedule: Q01DX001 (ip), vehicle: carboxymethylcellulose (CMC)
[2] = dose: 200.0 mg/kg/injection, schedule: Q01DX001 (ip), vehicle: carboxymethylcellulose (CMC)
[3] = dose: 400.0 mg/kg/injection, schedule: Q01DX001 (ip), vehicle: carboxymethylcellulose (CMC)
[4] = dose: 100.0 mg/kg/injection, schedule: Q04DX002 (ip), vehicle: Klucel (hydroxypropylcellulose) (HPC)
[5] = dose: 200.0 mg/kg/injection, schedule: Q04DX002 (ip), vehicle: Klucel (hydroxypropylcellulose) (HPC)
[6] = dose: 400.0 mg/kg/injection, schedule: Q04DX002 (ip), vehicle: Klucel (hydroxypropylcellulose) (HPC)
[7] = dose: 100.0 mg/kg/injection, schedule: Q04DX002 (ip), vehicle: saline with Tween-80
[8] = dose: 200.0 mg/kg/injection, schedule: Q04DX002 (ip), vehicle: saline with Tween-80
[9] = dose: 400.0 mg/kg/injection, schedule: Q04DX002 (ip), vehicle: saline with Tween-80
[10] = dose: 100.0 mg/kg/injection, schedule: Q01DX009 (ip), vehicle: saline with Tween-80
[11] = dose: 200.0 mg/kg/injection, schedule: Q01DX009 (ip), vehicle: saline with Tween-80
[12] = dose: 400.0 mg/kg/injection, schedule: Q01DX009 (ip), vehicle: saline with Tween-80
[13] = dose: 100.0 mg/kg/injection, schedule: Q01DX001 (ip), vehicle: other
[14] = dose: 200.0 mg/kg/injection, schedule: Q01DX001 (ip), vehicle: other
[15] = dose: 100.0 mg/kg/injection, schedule: Q01DX009 (ip), vehicle: Klucel (hydroxypropylcellulose) (HPC)
[16] = dose: 200.0 mg/kg/injection, schedule: Q01DX009 (ip), vehicle: Klucel (hydroxypropylcellulose) (HPC)
[17] = dose: 400.0 mg/kg/injection, schedule: Q01DX009 (ip), vehicle: Klucel (hydroxypropylcellulose) (HPC)
[18] = dose: 100.0 mg/kg/injection, schedule: Q04DX003 (ip), vehicle: Klucel (hydroxypropylcellulose) (HPC)
[19] = dose: 200.0 mg/kg/injection, schedule: Q04DX003 (ip), vehicle: Klucel (hydroxypropylcellulose) (HPC)
[20] = dose: 400.0 mg/kg/injection, schedule: Q04DX003 (ip), vehicle: Klucel (hydroxypropylcellulose) (HPC)
[21] = dose: 100.0 mg/kg/injection, schedule: Q01DX001 (ip), vehicle: saline
[22] = dose: 200.0 mg/kg/injection, schedule: Q01DX001 (ip), vehicle: saline
[23] = dose: 400.0 mg/kg/injection, schedule: Q01DX001 (ip), vehicle: saline

Measured: T/C

CCOC(=O)C(=O)Nc1ccccc1C(=O)O
inactive: dose: 100.0 mg/kg/injection, schedule: Q04DX009 (ip), vehicle: saline with Tween-80 96 % of control | dose: 200.0 mg/kg/injection, schedule: Q04DX009 (ip), vehicle: saline with Tween-80 103 % of control | dose: 400.0 mg/kg/injection, schedule: Q04DX009 (ip), vehicle: saline with Tween-80 102 % of control

Nc1ccc2c(c1)C1(NC(=O)NC1=O)c1cc(N)ccc1-2
inactive: dose: 50.0 mg/kg/injection, schedule: Q01DX001 (ip), vehicle: carboxymethylcellulose (CMC) 101 % of control | [1] 101 % of control | [2] 109 % of control | [3] 103 % of control

O=C(CCl)c1ccccc1
inactive: [1] 91 % of control | [2] 95 % of control | [3] 97 % of control

NC(CSS(=O)(=O)O)=NCCN1CCNC1=O
inactive: [4] 100 % of control | [5] 100 % of control | [6] 97 % of control

COC(=O)C1=C(\N2CCCC2)CCCCC/C=C\1C(=O)OC
inactive: dose: 75.0 mg/kg/injection, schedule: Q01DX009 (ip), vehicle: saline with Tween-80 97 % of control | dose: 150.0 mg/kg/injection, schedule: Q01DX009 (ip), vehicle: saline with Tween-80 103 % of control | dose: 300.0 mg/kg/injection, schedule: Q01DX009 (ip), vehicle: saline with Tween-80 107 % of control

CC(C)CCOC(c1ccc2c(c1)OCO2)C(C)Br (stereo unspecified)
inactive: dose: 100.0 mg/kg/injection, schedule: Q04DX003 (ip), vehicle: saline with Tween-80 94 % of control | dose: 200.0 mg/kg/injection, schedule: Q04DX003 (ip), vehicle: saline with Tween-80 87 % of control | dose: 400.0 mg/kg/injection, schedule: Q04DX003 (ip), vehicle: saline with Tween-80 94 % of control

C(CC1CCCC1)=C(CCC1CCCC1)CCC1CCCC1
inactive: dose: 50.0 mg/kg/injection, schedule: Q04DX002 (ip), vehicle: saline with Tween-80 103 % of control | [7] 92 % of control | [8] 95 % of control | [9] 92 % of control

CC(=O)OCC(C)CCC(=O)C(C)C1C(=O)CC2C3CC=C4CC(OC(C)=O)CCC4(C)C3CCC21C (stereo unspecified)
inactive: [10] 96 % of control | [11] 97 % of control | [12] 96 % of control

c1ccc(CSc2ncnc3nncnc23)cc1
inactive: dose: 5.0 mg/kg/injection, schedule: Q01DX001 (ip), vehicle: other 104 % of control | dose: 10.0 mg/kg/injection, schedule: Q01DX001 (ip), vehicle: other 95 % of control | dose: 20.0 mg/kg/injection, schedule: Q01DX001 (ip), vehicle: other 110 % of control | dose: 40.0 mg/kg/injection, schedule: Q01DX001 (ip), vehicle: other 101 % of control | dose: 80.0 mg/kg/injection, schedule: Q01DX001 (ip), vehicle: other 98 % of control | [13] 89 % of control | [14] 101 % of control

Cc1cccc(NC(=O)C(C)(C)C)c1C
inactive: [15] 106 % of control | [16] 95 % of control | [17] 101 % of control

Oc1ccc(N=Cc2ccccc2O)cc1.[Co]
inactive: [13] 98 % of control | [14] 94 % of control | dose: 400.0 mg/kg/injection, schedule: Q01DX001 (ip), vehicle: other 102 % of control

CC(=O)OC1CCC2(C)C3CCC4(C)C(c5ccc(=O)oc5)CC5OC54C3CCC2(O)C1 (stereo unspecified)
inactive: dose: 1.0 mg/kg/injection, schedule: Q01DX001 (sc), vehicle: steriod suspending solution 98 % of control | dose: 2.0 mg/kg/injection, schedule: Q01DX001 (sc), vehicle: steriod suspending solution 96 % of control | dose: 4.0 mg/kg/injection, schedule: Q01DX001 (sc), vehicle: steriod suspending solution 96 % of control | dose: 8.0 mg/kg/injection, schedule: Q01DX001 (sc), vehicle: steriod suspending solution 107 % of control | dose: 12.0 mg/kg/injection, schedule: Q01DX001 (sc), vehicle: steriod suspending solution 113 % of control | dose: 16.0 mg/kg/injection, schedule: Q01DX001 (sc), vehicle: steriod suspending solution 107 % of control | dose: 32.0 mg/kg/injection, schedule: Q01DX001 (sc), vehicle: steriod suspending solution 114 % of control | dose: 64.0 mg/kg/injection, schedule: Q01DX001 (sc), vehicle: steriod suspending solution 103 % of control | dose: 128.0 mg/kg/injection, schedule: Q01DX001 (sc), vehicle: steriod suspending solution 115 % of control

COC1(c2ccccc2)c2cc3ccccc3cc2C(OC)(c2ccccc2)c2cc3ccccc3cc21 (stereo unspecified)
inactive: [4] 98 % of control | [5] 109 % of control | [6] 95 % of control

COc1cccc(/C(=C/c2ccc([N+](=O)[O-])cc2)C(=O)Nc2ccc(S(=O)(=O)F)cc2)c1
inactive: [15] 101 % of control | [16] 90 % of control | [17] 90 % of control

CC(=O)OC1COC(Cl)C(OC(C)=O)C1OC(C)=O (stereo unspecified)
inactive: dose: 100.0 mg/kg/injection, schedule: Q01DX001 (sc), vehicle: olive oil, sesame oil, peanut oil 103 % of control | dose: 200.0 mg/kg/injection, schedule: Q01DX001 (sc), vehicle: olive oil, sesame oil, peanut oil 97 % of control | dose: 400.0 mg/kg/injection, schedule: Q01DX001 (sc), vehicle: olive oil, sesame oil, peanut oil 97 % of control

COc1cc2c(cc1OC)-c1oncc1CCC2
inactive: [1] 95 % of control | [2] 106 % of control | [3] 88 % of control

CC(C)Cc1ccc(C(=O)O)cc1
inactive: [15] 94 % of control | [18] 97 % of control | [16] 94 % of control | [19] 108 % of control | [17] 94 % of control | [20] 102 % of control

COC(=O)C(Br)C(Br)c1ccc(OC)c(OC)c1 (stereo unspecified)
inactive: [18] 96 % of control | [19] 101 % of control | [20] 96 % of control

O=Cc1cc(Br)ccc1[N+](=O)[O-]
inactive: [21] 103 % of control | [22] 103 % of control | [23] 101 % of control

COc1cc2c3c(c1O)C1(C=CC(=O)C=C1)CC3N(C)CC2 (stereo unspecified)
inactive: [21] 92 % of control | [22] 94 % of control | [23] 90 % of control

CCC1(c2ccccc2)C(=O)N(CCl)C(=O)N(CCl)C1=O
inactive: [10] 93 % of control | [7] 103 % of control | [11] 87 % of control | [8] 92 % of control | [12] 90 % of control | [9] 95 % of control
